system: KRAS G12V dependent lung adenocarcinoma cell line, NCI-H441; assay: Cellular pERK (Thr202/Tyr204) FRET/HTRF assay; format: cell-based; settings: Homo sapiens, NCI-H441, cellular pERK (Thr202/Tyr204) HTRF, NCI-H441 cells
Summary of the method: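 NCI-H441, overnight plating → cpd 1 hr, 37 °C/5% CO2; DMSO neg ctrl. Lyse (phosphatase inhibitors), add donor/acceptor Abs, RT incubation, HTRF read. IC50 by curve fit.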

SMILES | IC50
[2H]C([2H])([2H])Oc1c(F)cc(F)c2cc(N)cc(-c3ncc4c(N5CCOC[C@H]6[C@H](F)[C@H]65)nc(OC[C@@]56CCCN5CC(=C)C6)nc4c3F)c12 [Example 192, 6,8-difluoro-4-(8-fluoro-4-((1S,7S,8S)-8-fluoro-5-oxa-2-azabicyclo[5.1.0]octan-2-yl)-2-(((S)-2-methylenetetrahydro-1H-pyrrolizin-7a(5H)-yl)methoxy)pyrido[4,3-d]pyrimidin-7-yl)-5-(methoxy-d3)naphthalen-2-amine] | < 50 nM
[2H]C([2H])(F)Oc1c(F)ccc2cccc(-c3ncc4c(N5CCOC[C@H]6[C@H](F)[C@H]65)nc(OC[C@]56CC(=C)CN5CCC65CC5)nc4c3F)c12 [Example 384, (1S,7S,8S)-8-fluoro-2-(8-fluoro-7-(7-fluoro-8-(fluoromethoxy-d2)naphthalen-1-yl)-2-(((R)-6′-methylenetetrahydrospiro[cyclopropane-1,1′-pyrrolizin]-7a′(5′H)-yl)methoxy)pyrido[4,3-d]pyrimidin-4-yl)-5-oxa-2-azabicyclo[5.1.0]octane] | < 50 nM
[2H]C([2H])(Oc1nc(N2CCOC[C@H]3[C@H](F)[C@H]32)c2cnc(-c3cc(N)cc4ccc(Cl)c(C#C)c34)c(F)c2n1)[C@@]12CCCN1[C@H](C)[C@H](F)C2 [Example 337, 6-chloro-5-ethynyl-4-(8-fluoro-2-(((2R,3R,7aS)-2-fluoro-3-methyltetrahydro-1H-pyrrolizin-7a(5H)-yl)methoxy-d2)-4-((1S,7S,8S)-8-fluoro-5-oxa-2-azabicyclo[5.1.0]octan-2-yl)pyrido[4,3-d]pyrimidin-7-yl)naphthalen-2-amine] | < 50 nM
C#Cc1c(Cl)ccc2cc(N)cc(-c3ncc4c(N5CCOC[C@@H]6[C@@H](Cl)[C@@H]65)nc(OC[C@@H]5CCCN5C)nc4c3F)c12 [Example 326, 6-chloro-4-(4-((1R,7R,8R)-8-chloro-5-oxa-2-azabicyclo[5.1.0]octan-2-yl)-8-fluoro-2-(((S)-1-methylpyrrolidin-2-yl)methoxy)pyrido[4,3-d]pyrimidin-7-yl)-5-ethynylnaphthalen-2-amine] | 50 to 500 nM
[2H]C([2H])(Oc1nc(N2CCOC[C@H]3[C@H](F)[C@H]32)c2cnc(-c3cccc4cccc(C#C)c34)c(F)c2n1)[C@@]12CCCN1C[C@H](F)C2 [Example 319, (1S,7S,8S)-2-(7-(8-ethynylnaphthalen-1-yl)-8-fluoro-2-(((2R,7aS)-2-fluorotetrahydro-1H-pyrrolizin-7a(5H)-yl)methoxy-d2)pyrido[4,3-d]pyrimidin-4-yl)-8-fluoro-5-oxa-2-azabicyclo[5.1.0]octane] | < 50 nM
[2H]C([2H])(Oc1nc(N2CC=CC[C@H]3[C@H](F)[C@H]32)c2cnc(-c3cc(N)cc4ccc(F)c(C#C)c34)c(F)c2n1)[C@@]12CCCN1C[C@H](F)C2 [Example 174, 5-Ethynyl-6-fluoro-4-(8-fluoro-4-((1S,7R,8S)-8-fluoro-2-azabicyclo[5.1.0]oct-4-en-2-yl)-2-(((2R,7aS)-2-fluorotetrahydro-1H-pyrrolizin-7a(5H)-yl)methoxy-d2)pyrido[4,3-d]pyrimidin-7-yl)naphthalen-2-amine] | < 50 nM
C#Cc1c(F)ccc2cc(N)cc(-c3ncc4c(N5CCOC[C@H]6[C@H](F)[C@H]65)nc(OC[C@@]56C=C(C)CN5CCC65CC5)nc4c3F)c12 [Example 244, 5-ethynyl-6-fluoro-4-(8-fluoro-4-((1S,7S,8S)-8-fluoro-5-oxa-2-azabicyclo[5.1.0]octan-2-yl)-2-(((S)-6′-methyl-2′,3′-dihydrospiro[cyclopropane-1,1′-pyrrolizin]-7a′(5′H)-yl)methoxy)pyrido[4,3-d]pyrimidin-7-yl)naphthalen-2-amine] | < 50 nM

Continued, values first:

IC50 | SMILES
< 50 nM | C=C1CN2CCC3(CC3)[C@@]2(COc2nc(N3CCCC[C@H]4[C@H](F)[C@H]43)c3cnc(-c4cc(N)cc(Cl)c4C(F)(F)F)c(F)c3n2)C1 [Example 424, 3-chloro-5-(8-fluoro-4-((1S,7R,8S)-8-fluoro-2-azabicyclo[5.1.0]octan-2-yl)-2-(((R)-6′-methylenetetrahydrospiro[cyclopropane-1,1′-pyrrolizin]-7a′(5′H)-yl)methoxy)pyrido[4,3-d]pyrimidin-7-yl)-4-(trifluoromethyl)aniline]
50 to 500 nM | [2H]C([2H])(Oc1nc(N2CCOC[C@H]3[C@H](F)[C@H]32)c2cnc(-c3nc(N)cc4ccc(F)c(Cl)c34)c(F)c2n1)[C@@]12CCCN1C[C@H](F)C2 [Example 152, 8-chloro-7-fluoro-1-(8-fluoro-4-((1S,7S,8S)-8-fluoro-5-oxa-2-azabicyclo[5.1.0]octan-2-yl)-2-(((2R,7aS)-2-fluorotetrahydro-1H-pyrrolizin-7a(5H)-yl)methoxy-d2)pyrido[4,3-d]pyrimidin-7-yl)isoquinolin-3-amine]
500 to 10000 nM | [2H]C([2H])(Oc1nc(N2CCOC[C@H]3[C@H](F)[C@H]32)c2ccc(-c3cc(N)cc(C)c3C(F)(F)F)c(F)c2n1)[C@@]12CCCN1C[C@H](F)C2 [Example 180, 3-(8-fluoro-4-((1S,7S,8S)-8-fluoro-5-oxa-2-azabicyclo[5.1.0]octan-2-yl)-2-(((2R,7aS)-2-fluorotetrahydro-1H-pyrrolizin-7a(5H)-yl)methoxy-d2)quinazolin-7-yl)-5-methyl-4-(trifluoromethyl)aniline]
< 50 nM | C#Cc1c(F)ccc2cc(O)cc(-c3ncc4c(N5CCCO[C@H]6C[C@H]65)nc(OC[C@@]5(C)CCCN5C)nc4c3F)c12 [Example 283, 4-(4-((1S,7R)-2-oxa-6-azabicyclo[5.1.0]octan-6-yl)-2-(((R)-1,2-dimethylpyrrolidin-2-yl)methoxy)-8-fluoropyrido[4,3-d]pyrimidin-7-yl)-5-ethynyl-6-fluoronaphthalen-2-ol]
< 50 nM | [2H]C([2H])(Oc1nc(N2CCOC[C@H]3[C@H](F)[C@H]32)c2c(OC(C)C)nc(-c3cc(N)cc4ccc(F)c(C#C)c34)c(F)c2n1)[C@@]12CCCN1C[C@H](F)C2 [Example 323, 5-ethynyl-6-fluoro-4-(8-fluoro-4-((1S,7S,8S)-8-fluoro-5-oxa-2-azabicyclo[5.1.0]octan-2-yl)-2-(((2R,7aS)-2-fluorotetrahydro-1H-pyrrolizin-7a(5H)-yl)methoxy-d2)-5-isopropoxypyrido[4,3-d]pyrimidin-7-yl)naphthalen-2-amine]
< 50 nM | [2H]C([2H])(Oc1nc(N2CCOC[C@H]3[C@H](F)[C@H]32)c2cnc(-c3cc(N)cc4ccc(F)c(C#C)c34)c(F)c2n1)[C@@]12CCCN1C[C@]1(C[C@H]1F)C2 (single isomer, unassigned) [Example 312]
< 50 nM | [2H]C([2H])(Oc1nc(N2CCOC[C@H]3[C@H](F)[C@H]32)c2cnc(-c3cc(O)cc(C)c3C(F)(F)F)c(F)c2n1)[C@@]12CCCN1C[C@H](F)C2 [Example 335, 3-(8-fluoro-4-((1S,7S,8S)-8-fluoro-5-oxa-2-azabicyclo[5.1.0]octan-2-yl)-2-(((2R,7aS)-2-fluorotetrahydro-1H-pyrrolizin-7a(5H)-yl)methoxy-d2)pyrido[4,3-d]pyrimidin-7-yl)-5-methyl-4-(trifluoromethyl)phenol]

same assay, conditions: Homo sapiens, NCI-H441, cellular pERK HTRF, NCI-H441 (KRAS G12V) cells

IC50 | SMILES
< 50 nM | [2H]C([2H])(Oc1nc(N2CCOC[C@H]3[C@H](Cl)[C@H]32)c2cnc(-c3cc(O)cc4ccc(F)c(C#C)c34)c(F)c2n1)[C@@]12CCCN1[C@H](C)[C@H](F)C2 [Example 475, 4-(4-((1S,7S,8S)-8-chloro-5-oxa-2-azabicyclo[5.1.0]octan-2-yl)-8-fluoro-2-(((2R,3R,7aS)-2-fluoro-3-methyltetrahydro-1H-pyrrolizin-7a(5H)-yl)methoxy-d2)pyrido[4,3-d]pyrimidin-7-yl)-5-ethynyl-6-fluoronaphthalen-2-ol]
< 50 nM | C#Cc1c(F)ccc2cc(O)cc(-c3ncc4c(N5CCOC[C@H]6[C@H](F)[C@H]65)nc(OC[C@@]56CCCN5C/C(=C/F)C6)nc4c3C)c12 [Example 447, 5-ethynyl-6-fluoro-4-(4-((1S,7S,8S)-8-fluoro-5-oxa-2-azabicyclo[5.1.0]octan-2-yl)-2-(((S,E)-2-(fluoromethylene)tetrahydro-1H-pyrrolizin-7a(5H)-yl)methoxy)-8-methylpyrido[4,3-d]pyrimidin-7-yl)naphthalen-2-ol]

same assay, conditions: Homo sapiens, NCI-H441, pERK HTRF, NCI-H441 cells (KRAS G12V)

IC50 | SMILES
< 50 nM | [2H]C([2H])(Oc1nc(N2CCCO[C@H]3C[C@H]32)c2cnc(-c3cc(N)cc4cc(F)c(F)c(C#C)c34)c(F)c2n1)[C@@]12CCCN1C[C@H](F)C2 [Example 17, 4-(4-((1S,7R)-2-Oxa-6-azabicyclo[5.1.0]octan-6-yl)-8-fluoro-2-(((2R,7aS)-2-fluorotetrahydro-1H-pyrrolizin-7a(5H)-yl)methoxy-d2)pyrido[4,3-d]pyrimidin-7-yl)-5-ethynyl-6,7-difluoronaphthalen-2-amine]
< 50 nM | [2H]C([2H])(Oc1nc(N2CCCC[C@H]3[C@H](F)[C@H]32)c2cnc(-c3cc(N)cc4cc(F)c(F)c(OC(F)F)c34)c(F)c2n1)[C@@]12CCCN1C[C@H](F)C2 [Example 67, 5-(Difluoromethoxy)-6,7-difluoro-4-(8-fluoro-4-((1S,7R,8S)-8-fluoro-2-azabicyclo[5.1.0]octan-2-yl)-2-(((2R,7aS)-2-fluorotetrahydro-1H-pyrrolizin-7a(5H)-yl)methoxy-d2)pyrido[4,3-d]pyrimidin-7-yl)naphthalen-2-amine]
< 50 nM | [2H]C([2H])(F)Oc1c(F)c(F)cc2cc(N)cc(-c3ncc4c(N5CCCC[C@H]6[C@H](F)[C@H]65)nc(OC([2H])([2H])[C@@]56CCCN5C[C@H](F)C6)nc4c3F)c12 [Example 71, 6,7-Difluoro-4-(8-fluoro-4-((1S,7R,8S)-8-fluoro-2-azabicyclo[5.1.0]octan-2-yl)-2-(((2R,7aS)-2-fluorotetrahydro-1H-pyrrolizin-7a(5H)-yl)methoxy-d2)pyrido[4,3-d]pyrimidin-7-yl)-5-(fluoromethoxy-d2)naphthalen-2-amine]
